The values below come from US11091482B2, “Isoxazolyl-carbonyloxy azabicyclo[3.2.1]octanyl compounds as FXR activators” (ARDELYX, INC., priority 2016, dated 2021).

Test [1] has as its target human Farnesoid X receptor ligand-binding domain/Gal4 DNA binding domain chimera (Homo sapiens (Human), UniProt Q96RI1). The test can be described thus: Cell-based FXR beta-lactamase reporter assay (FXR-UAS-bla HEK 293T cells). Conditions: for Emax: HEK-293T, read-out: % Efficacy; for EC50 / FXR pEC50 / % Efficacy: cellular FXR beta-lactamase reporter assay; for EC50 / FXR pEC50: -log EC50; for EC50: read-out: FXR pEC50 (converted); for % Efficacy: extent of activation relative to GW4064. The method, then:
FXR activation was measured using a cell line and procedure obtained from Life Technologies (Cat #K1691). FXR-UAS-bla HEK 293T cells contain a human Farnesoid X receptor ligand-binding domain/Gal4 DNA binding domain chimera stably integrated into the CellSensor® UAS-bla HEK 293T cell line. The CellSensor® UAS-bla HEK 293T contains a beta-lactamase reporter gene under control of a UAS response element stably integrated into HEK 293T cells. Activation of FXR by bound ligands results in transcriptional activation of the beta-lactamase reporter gene, which is detected via assay of beta-lactamase activity. Cells are harvested and diluted into assay medium containing phenol red-free DMEM supplemented with 2% Charcoal-stripped FBS, pyruvate, non-essential amino acids. Cells are then transferred to a 384 well assay plate. Test compounds are dissolved in DMSO and a 3-fold serial dilution series is generated, then further diluted into assay medium. […] A FRET-based […] is loaded into cells as its acetomethoxy ester. Intracellular esterases liberate free CCF4, a cephalosporin core linking 7-hydroxycoumarin to fluorescein. In the presence of beta-lactamase activity produced in the presence of FXR agonists, cleavage of CCF4 spatially separates the two dyes and disrupts FRET, so that exciting the coumarin at 409 nm now produces a blue fluorescence signal at 447 nm. The change in FRET signal is plotted against the test compound concentration and fit to a 3-parameter logistical equation.
Background: A reporter such as luciferase makes a cellular process visible.

Test [2] addresses ligand binding domain of human FXR (Homo sapiens (Human), UniProt Q96RI1). The test can be described thus: FXR ligand binding assay (LanthaScreen FRET).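 For all read-outs here: TR-FRET coactivator recruitment: ligand-induced binding of fluorescein-labelled SRC2-2 peptide to GST-tagged FXR LBD detected via Tb anti-GST antibody, serial compound dilutions, 3-parameter logistic fit.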 Conditions: for Emax: read-out: % Efficacy; for FXR pEC50 / % Efficacy: FXR ligand binding assay; for FXR pEC50: -log EC50; for % Efficacy: extent of activation relative to GW4064. (In general: Time-resolved FRET reads energy transfer from a long-lived donor to a nearby acceptor.)
Description: The affinity of FXR ligands for the ligand binding domain of FXR was determined using a commercially available human FXR ligand binding assay (LanthaScreen, Thermofisher Cat #PV4833). […] Binding of FXR ligands to the FXR ligand binding domain promotes binding of the fluorescein-labelled SRC2-2 peptide. This causes a FRET signal between the terbium-labelled anti-GST antibody and the fluorescein-labelled SRC peptide which are both bound to the FXR ligand binding domain.
Test compounds are dissolved in DMSO and a 3-fold serial dilution series is generated, then further diluted into assay buffer. The compounds are mixed with 5 nM GST-tagged FXR ligand binding domain, 5 nM Tb-labelled anti-GST antibody and 500 nM fluorcscein-labelled SRC2-2 peptide in a pH 7.4 buffer. The reaction is incubated at room temperature for 1 hour, then the FRET signal is measured as the ratio of the 520 nm/495 nm emission following excitation at 340 nm. The change in FRET signal is plotted against the test article concentration and fit to a 3-parameter logistical equation.

Sequence of human Farnesoid X receptor ligand-binding domain/Gal4 DNA binding domain chimera (Q96RI1 262-486, stated change not applied): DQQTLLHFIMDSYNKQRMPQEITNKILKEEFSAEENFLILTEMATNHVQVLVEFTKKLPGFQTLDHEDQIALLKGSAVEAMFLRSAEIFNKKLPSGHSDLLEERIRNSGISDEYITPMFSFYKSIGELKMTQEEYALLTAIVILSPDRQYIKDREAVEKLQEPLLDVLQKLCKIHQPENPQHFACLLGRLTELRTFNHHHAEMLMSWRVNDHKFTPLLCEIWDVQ
Sequence of ligand binding domain of human FXR (Q96RI1 262-486): as the sequence (Q96RI1 262-486, stated change not applied) above

In the case of `Cc1cc(C(=O)O)cc2sc(N3[C@@H]4CC[C@H]3C[C@@H](OC(=O)c3c(-c5c(Cl)cccc5Cl)noc3C3CC3)C4)nc12` [Compound I-11, 2-[(1R,3R,5S)-3-[5-Cyclopropyl-3-(2,6-dichlorophenyl)-1,2-oxazole-4-carbonyloxy]-8-azabicyclo[3.2.1]octan-8-yl]-4-methyl-1,3-benzothiazole-6-carboxylic Acid], the Emax was 121% in test [1] and 110% in test [2]. Moreover, the EC50 in test [1] was 2.51 nM.
Regarding `CCc1cc(C(=O)O)cc2sc(N3[C@@H]4CC[C@H]3C[C@@H](OC(=O)c3c(-c5c(Cl)cccc5Cl)noc3C3CC3)C4)nc12` [Compound I-60, 2-[(1R,3R,5S)-3-[5-cyclopropyl-3-(2,6-dichlorophenyl)-1,2-oxazole-4-carbonyloxy]-8-azabicyclo[3.2.1]octan-8-yl]-4-ethyl-1,3-benzothiazole-6-carboxylic Acid], in test [1], the Emax turned out to be 104% and the EC50 is 6.31 nM. Also, in test [2], the “FXR pEC50” value amounted to 7 and the Emax is 119%.
As to `CS(=O)(=O)NC(=O)c1ccc(N2[C@@H]3CC[C@H]2C[C@@H](OC(=O)c2c(-c4c(Cl)cccc4Cl)noc2C2CC2)C3)c(F)c1` [Compound I-51, (1R,3R,5S)-8-[2-fluoro-4-(methanesulfonylcarbamoyl)phenyl]-8-azabicyclo[3.2.1]octan-3-yl 5-cyclopropyl-3-(2,6-dichlorophenyl)-1,2-oxazole-4-carboxylate], in test [1], the Emax came to 105% and the EC50 was 5.01 nM. Besides, the Emax in test [2] was 139%.
For `Cn1cc(C(=O)O)c2ccc(N3[C@@H]4CC[C@H]3C[C@@H](OC(=O)c3c(-c5c(Cl)cccc5Cl)noc3C3CC3)C4)cc21` [Compound I-28, 6-[(1R,3R,5S)-3-[5-cyclopropyl-3-(2,6-dichlorophenyl)-1,2-oxazole-4-carbonyloxy]-8-azabicyclo[3.2.1]octan-8-yl]-1-methyl-1H-indole-3-carboxylic Acid] the same measures were 117%, 25.1 nM and 94%.
For `Cc1cc(C(=O)O)cc2sc(N3[C@@H]4CC[C@H]3C[C@@H](OC(=O)c3c(-c5c(Cl)cccc5Cl)noc3C3(F)CC3)C4)nc12` [Compound I-59, 2-[(1R,3R,5S)-3-[3-(2,6-dichlorophenyl)-5-(1-fluorocyclopropyl)-1,2-oxazole-4-carbonyloxy]-8-azabicyclo[3.2.1]octan-8-yl]-4-methyl-1,3-benzothiazole-6-carboxylic Acid] the same measures were 105%, 39.8 nM and 95%.
Turning to `O=C(OCC(=O)N(CCO)CCO)c1cc(F)c2nc(N3[C@@H]4CC[C@H]3C[C@@H](OC(=O)c3c(-c5c(Cl)cccc5Cl)noc3C3CC3)C4)sc2c1` [Compound I-64, [bis(2-hydroxyethyl)carbamoyl]methyl 2-[(1R,3R,5S)-3-[5-cyclopropyl-3-(2,6-dichlorophenyl)-1,2-oxazole-4-carbonyloxy]-8-azabicyclo[3.2.1]octan-8-yl]-4-fluoro-1,3-benzothiazole-6-carboxylate], in test [1], the EC50 is below 31.6 nM. For the same compound, in test [2], the “FXR pEC50” value is on record as 6.6 and the Emax was 32%.
As to `O=C(OCCN(CCO)CCO)c1cc(F)c2nc(N3[C@@H]4CC[C@H]3C[C@@H](OC(=O)c3c(-c5c(Cl)cccc5Cl)noc3C3CC3)C4)sc2c1` [Compound I-63, 2-[bis(2-hydroxyethyl)amino]ethyl 2-[(1R,3R,5S)-3-[5-cyclopropyl-3-(2,6-dichlorophenyl)-1,2-oxazole-4-carbonyloxy]-8-azabicyclo[3.2.1]octan-8-yl]-4-fluoro-1,3-benzothiazole-6-carboxylate], in test [1], the Emax stood at 112% and the EC50 was 10000 nM. In test [2], the “FXR pEC50” value is listed as above 6.5.
For the compound `O=C(O)c1cc(F)c2nc(N3[C@@H]4CC[C@H]3C[C@@H](OC(=O)c3c(-c5ccccc5)noc3C3CC3)C4)sc2c1` [Compound I-13, 2-[(1R,3R,5S)-3-(5-Cyclopropyl-3-phenyl-1,2-oxazole-4-carbonyloxy)-8-azabicyclo[3.2.1]octan-8-yl]-4-fluoro-1,3-benzothiazole-6-carboxylic Acid], the “FXR pEC50” value in test [1] was 6; in test [2] it was 6.7. Besides, the entries for the “% Efficacy” value in test [1] and in test [2] were 93% and 40%, respectively.
On to `O=C(O)c1cc(F)cc(N2[C@@H]3CC[C@H]2C[C@@H](OC(=O)c2c(-c4c(Cl)cccc4Cl)noc2C2CC2)C3)c1` [Compound I-42, 3-[(1R,3R,5S)-3-[5-cyclopropyl-3-(2,6-dichlorophenyl)-1,2-oxazole-4-carbonyloxy]-8-azabicyclo[3.2.1]octan-8-yl]-5-fluorobenzoic acid], for which, in test [1], the Emax is 85% and the EC50 is 79.4 nM. For the same compound, in test [2], the “FXR pEC50” value came out at 8 and the Emax worked out at 38%.
With `Cc1onc(-c2c(Cl)cccc2Cl)c1C(=O)O[C@H]1C[C@H]2CC[C@@H](C1)N2c1nc2c(F)cc(C(=O)O)cc2s1` [Compound I-23, 2-[(1R,3S,5S)-3-[3-(2,6-dichlorophenyl)-5-methyl-1,2-oxazole-4-carbonyloxy]-8-azabicyclo[3.2.1]octan-8-yl]-4-fluoro-1,3-benzothiazole-6-carboxylic Acid], in test [1], the “FXR pEC50” value came out at 6.8 and the “% Efficacy” value turned out to be 100%. In addition, in test [2], the “FXR pEC50” value is given as 7.1 and the “% Efficacy” value worked out at 37%.
Take `NC(=O)c1cc(F)c2nc(N3[C@@H]4CC[C@H]3C[C@@H](OC(=O)c3c(-c5c(Cl)cccc5Cl)noc3C3CC3)C4)sc2c1` [Compound I-3, (1R,3R,5S)-8-(6-carbamoyl-4-fluoro-1,3-benzothiazol-2-yl)-8-azabicyclo[3.2.1]octan-3-yl 5-cyclopropyl-3-(2,6-dichlorophenyl)-1,2-oxazole-4-carboxylate]: the Emax in test [2] came to 60%.
On to `O=C(O)c1cc(F)c2nc(N3[C@@H]4CC[C@H]3C[C@@H](OC(=O)c3c(C5CCC6(CC5)CC6)noc3C3CC3)C4)sc2c1` [Compound I-19, 2-[(1R,3R,5S)-3-(5-cyclopropyl-3-{spiro[2.5]octan-6-yl}-1,2-oxazole-4-carbonyloxy)-8-azabicyclo[3.2.1]octan-8-yl]-4-fluoro-1,3-benzothiazole-6-carboxylic Acid], for which, in test [1], the “FXR pEC50” value is reported as 6.8 and the “% Efficacy” value amounted to 79%. Moreover, in test [2], the “FXR pEC50” value is reported as 7.2 and the “% Efficacy” value is on record as 55%.
On to `O=C(NS(=O)(=O)CCCO)c1ccc(N2[C@@H]3CC[C@H]2C[C@@H](OC(=O)c2c(-c4c(Cl)cccc4Cl)noc2C2CC2)C3)cc1` [Compound I-50, (1R,3R,5S)-8-{4-[(3-hydroxypropanesulfonyl)carbamoyl]phenyl}-8-azabicyclo[3.2.1]octan-3-yl 5-cyclopropyl-3-(2,6-dichlorophenyl)-1,2-oxazole-4-carboxylate], for which, in test [1], the Emax is 102% and the EC50 was 158 nM.
As for `Cn1c(N2[C@@H]3CC[C@H]2C[C@@H](OC(=O)Cc2c(-c4c(Cl)cccc4Cl)noc2C2CC2)C3)nc2c(F)cc(C(=O)O)cc21` [Compound I-33, 2-[(1R,3R,5S)-3-({2-[5-cyclopropyl-3-(2,6-dichlorophenyl)-1,2-oxazol-4-yl]acetyl}oxy)-8-azabicyclo[3.2.1]octan-8-yl]-4-fluoro-1-methyl-1H-1,3-benzodiazole-6-carboxylic Acid], in test [1], the Emax turned out to be 72%.
The same measure, in the same setting: for `COc1cc(C(=O)O)cc2sc(N3[C@@H]4CC[C@H]3C[C@@H](OC(=O)c3c(C56CCC(CC5)CC6)noc3C3CC3)C4)nc12` [Compound I-21, 2-[(1R,3R,5S)-3-(3-{bicyclo[2.2.2]octan-1-yl}-5-cyclopropyl-1,2-oxazole-4-carbonyloxy)-8-azabicyclo[3.2.1]octan-8-yl]-4-methoxy-1,3-benzothiazole-6-carboxylic Acid] the value was 44%.
On to `O=C(O)c1cccc(S(=O)(=O)N2[C@@H]3CC[C@H]2C[C@@H](OC(=O)c2c(-c4c(Cl)cccc4Cl)noc2C2CC2)C3)c1` [Compound I-55, 3-{[(1R,3R,5S)-3-[5-cyclopropyl-3-(2,6-dichlorophenyl)-1,2-oxazole-4-carbonyloxy]-8-azabicyclo[3.2.1]octan-8-yl]sulfonyl}benzoic Acid], for which, in test [1], the Emax was determined as 96% and the EC50 is 1000 nM.
Consider `COc1cc2nc(N3[C@@H]4CC[C@H]3C[C@@H](OC(=O)c3c(C56CCC(CC5)CC6)noc3C3CC3)C4)sc2cc1C(=O)O` [Compound I-22, 2-[(1R,3R,5S)-3-(3-{bicyclo[2.2.2]octan-1-yl}-5-cyclopropyl-1,2-oxazole-4-carbonyloxy)-8-azabicyclo[3.2.1]octan-8-yl]-5-methoxy-1,3-benzothiazole-6-carboxylic Acid], for which, in test [1], the Emax was found to be 44% and the EC50 is 398 nM.
